# Measurements published in US6426343B1, “Preparation and use of a specific GABA-Aα5 receptor ligand for treatment of Alzheimer's disease” (Merck Sharp & Dohme Ltd., priority 1995, dated 2002).
# Tests used:
# [1] = system: male Sprague Dawley rats; assay: Pro-convulsant testing, acute treatment, PTZ infusion; type: in vivo, rat; conditions: 10.0 mg/kg IP 30 min prior to PTZ infusion; post hoc tests
# Protocol: Sixty naive male Sprague Dawley rats (225-265 g) housed in groups of four with food and water freely available, served as subjects. The rats were assigned to one of six groups and given: Vehicle or 0.5, 1.0, 2.0, 4.0 mg/kg of […] or 10.0 mg/kg of the non-selective receptor inverse agonist, CGS 8216, a known pro-convulsant agent. Vehicle, FG 8094 or CGS 8216 was administered IP 30 min prior to an infusion of the convulsant, pentylenetetrazole (PTZ, 40 mg/ml). PTZ was infused into the tail vein of the rat at the rate of 1.0 ml/min. The latency to clonic and tonic seizure were recorded and the threshold to each was calculated using the equation: Threshold dose=infusion rate (ml/s)×PTZ (mg/ml)×(1000/rats weight)×latency(s).
# [2] = in vivo; cited from earlier work
# [3] = system: α1 and α5-containing receptors; conditions: cited from earlier work
# [4] = biological target: T1, α5β3γ2 (Homo sapiens, UniProt P18507+P31644); assay: Radioligand binding, membranes of stably transfected cells; conditions: [3H]Ro 15-1788 at twice Kd; mean±SEM, 3-6 determinations; read-out: Ki α5β3γ2
# T1 construct: expressed in transfected cells
# T1 sequence (P31644 32-462): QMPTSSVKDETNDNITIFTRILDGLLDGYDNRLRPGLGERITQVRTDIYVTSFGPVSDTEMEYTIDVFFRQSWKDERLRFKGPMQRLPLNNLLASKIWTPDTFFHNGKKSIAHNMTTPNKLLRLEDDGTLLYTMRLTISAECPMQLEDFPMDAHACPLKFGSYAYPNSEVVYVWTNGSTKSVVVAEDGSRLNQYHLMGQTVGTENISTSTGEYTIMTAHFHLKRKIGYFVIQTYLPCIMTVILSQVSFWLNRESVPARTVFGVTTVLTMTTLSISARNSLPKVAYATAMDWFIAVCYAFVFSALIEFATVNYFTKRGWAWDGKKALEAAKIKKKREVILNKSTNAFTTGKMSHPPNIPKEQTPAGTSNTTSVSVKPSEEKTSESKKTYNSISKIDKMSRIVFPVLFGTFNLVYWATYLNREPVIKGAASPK
# T1 sequence (P28472 26-473 partner): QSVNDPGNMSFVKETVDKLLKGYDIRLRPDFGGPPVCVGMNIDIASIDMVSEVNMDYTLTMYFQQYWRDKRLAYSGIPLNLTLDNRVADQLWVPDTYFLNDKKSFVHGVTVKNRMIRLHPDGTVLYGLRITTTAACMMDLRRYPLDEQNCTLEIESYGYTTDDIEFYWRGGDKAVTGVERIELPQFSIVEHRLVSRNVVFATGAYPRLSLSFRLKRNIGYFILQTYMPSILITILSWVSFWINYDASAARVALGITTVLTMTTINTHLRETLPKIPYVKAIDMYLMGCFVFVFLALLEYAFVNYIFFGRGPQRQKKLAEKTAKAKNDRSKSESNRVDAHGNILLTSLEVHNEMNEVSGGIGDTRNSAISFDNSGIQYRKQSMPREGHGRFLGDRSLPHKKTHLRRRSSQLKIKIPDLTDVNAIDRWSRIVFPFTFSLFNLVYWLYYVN
# T1 sequence (P18507 40-467 isoform P18507-1 limits assumed): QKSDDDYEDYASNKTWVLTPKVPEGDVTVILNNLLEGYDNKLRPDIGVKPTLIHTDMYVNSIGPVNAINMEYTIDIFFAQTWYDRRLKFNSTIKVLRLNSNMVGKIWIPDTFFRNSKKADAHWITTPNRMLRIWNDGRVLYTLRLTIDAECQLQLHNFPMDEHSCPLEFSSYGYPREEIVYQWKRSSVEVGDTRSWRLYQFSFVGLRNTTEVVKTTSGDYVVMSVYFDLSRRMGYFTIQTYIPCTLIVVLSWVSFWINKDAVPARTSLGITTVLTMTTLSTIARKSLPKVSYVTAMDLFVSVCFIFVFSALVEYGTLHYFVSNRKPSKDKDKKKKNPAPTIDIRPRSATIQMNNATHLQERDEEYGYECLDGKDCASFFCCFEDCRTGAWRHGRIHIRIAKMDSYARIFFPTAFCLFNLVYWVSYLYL
# [5] = biological target: T2, α6β3γ2 (Homo sapiens, UniProt P18507+Q16445); assay: as above; conditions: [3H]Ro 15-4513 as radioligand; mean±SEM, 3-6 determinations; read-out: Ki α6β3γ2
# T2 construct: expressed in transfected cells
# T2 sequence (Q16445 20-453): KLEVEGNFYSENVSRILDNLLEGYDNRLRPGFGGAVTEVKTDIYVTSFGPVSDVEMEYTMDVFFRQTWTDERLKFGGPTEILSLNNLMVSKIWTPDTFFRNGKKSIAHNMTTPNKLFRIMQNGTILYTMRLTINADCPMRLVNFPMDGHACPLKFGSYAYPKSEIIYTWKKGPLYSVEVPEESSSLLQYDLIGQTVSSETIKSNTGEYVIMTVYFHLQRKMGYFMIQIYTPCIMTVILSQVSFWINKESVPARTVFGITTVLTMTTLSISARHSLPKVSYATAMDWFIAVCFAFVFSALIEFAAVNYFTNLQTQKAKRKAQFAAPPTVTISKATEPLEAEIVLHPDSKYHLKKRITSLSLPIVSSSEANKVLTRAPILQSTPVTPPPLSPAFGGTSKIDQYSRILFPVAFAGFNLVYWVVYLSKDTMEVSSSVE
# T2 sequence (P28472 26-473 partner): as the sequence (P28472 26-473 partner) above
# T2 sequence (P18507 40-467 isoform P18507-1 limits assumed): as the sequence (P18507 40-467 isoform P18507-1 limits assumed) above
# [6] = biological target: T3, α3β3γ2 (Homo sapiens, UniProt P18507+P34903); assay: as above; conditions: [3H]Ro 15-1788 at twice Kd; mean±SEM, 3-6 determinations; read-out: Ki α3β3γ2
# T3 construct: expressed in transfected cells
# T3 sequence (P34903 29-492): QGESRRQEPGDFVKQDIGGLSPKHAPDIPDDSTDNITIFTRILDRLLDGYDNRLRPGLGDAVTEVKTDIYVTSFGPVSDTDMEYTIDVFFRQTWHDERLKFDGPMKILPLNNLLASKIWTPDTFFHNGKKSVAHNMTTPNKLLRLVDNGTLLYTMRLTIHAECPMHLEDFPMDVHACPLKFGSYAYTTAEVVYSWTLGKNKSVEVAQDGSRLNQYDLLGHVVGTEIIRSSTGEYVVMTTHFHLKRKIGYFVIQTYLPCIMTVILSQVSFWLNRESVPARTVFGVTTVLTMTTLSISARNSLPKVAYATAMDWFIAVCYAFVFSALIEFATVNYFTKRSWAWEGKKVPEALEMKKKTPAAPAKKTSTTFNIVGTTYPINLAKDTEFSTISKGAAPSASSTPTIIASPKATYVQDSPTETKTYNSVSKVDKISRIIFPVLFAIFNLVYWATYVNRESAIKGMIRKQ
# T3 sequence (P28472 26-473 partner): as the sequence (P28472 26-473 partner) above
# T3 sequence (P18507 40-467 isoform P18507-1 limits assumed): as the sequence (P18507 40-467 isoform P18507-1 limits assumed) above
structure (smiles),measurement,setting,value
"O=C1C2C=Nc3ccccc3C2=NN1c1ccccc1 (stereo not shown) [CGS 8216, reference compound]",threshold dose of PTZ to tonic seizures,[1],significantly lowered the threshold doses to tonic seizures
COC(=O)c1cc2c(cn1)[nH]c1ccccc12 [β-CCM],spatial learning in the Morris watermaze,[2],enhanced spatial learning
Cc1ccc(-c2nc3ccc(C)cn3c2CC(=O)N(C)C)cc1 [zolpidem],relative affinity α1 versus α5-containing receptors,[3],greater anfinity for α1 than for α5-containing receptors
"Cc1nnc2ccc(-c3cccc(C(F)(F)F)c3)nn12 [CL 218,872]",relative affinity α1 versus α5-containing receptors,[3],greater anfinity for α1 than for α5-containing receptors
"CCOC(=O)c1ncn2c1CN(C)C(=O)c1cc(N=[N+]=[N-])ccc1-2 [Ro 15-4513, reference compound]",Ki,[4],0.24 ± 0.05 nM
same,Ki,[5],6.5 ± 0.6 nM
same,Ki,[6],1.28 ± 0.06 nM
